Reference: patent publication US10214492B2, “Heterocyclic inhibitors of MCT4” (Vettore, LLC, priority 2016, dated 2019)

Legend:
MCT4 = MCT4 (Homo sapiens (Human), UniProt O15427); assay: Assay 3: MCT4-mediated lactate transport in MDA-MB-231 breast cancer cells; format: cell-based; details: MDA-MB-231 cells; lactate transport
Protocol: (§1) 10 μL of a 30 mM DMSO stock of BCECF-AM ester (Life Technologies) is added and the cells are incubated at 37° C. for 5 min. The cells are pelleted (300 g, 5 min), washed once with 1 mL Tyrode's Solution, pH 7.4, re-pelleted (300 g, 5 min), and resuspended in 1 mL Tyrode's Solution, pH 7.4.
MCT4 activity may be assessed by monitoring the intracellular pH change that accompanies lactate/proton symport, using the pH-sensitive fluorescent dye 2′,7′-bis-(carboxyethyl)-5(6)-carboxyfluorescein (BCECF), in a manner similar to that previously reported for MCT1 and MCT4. The following is an exemplary procedure for assaying MCT4 activity of the compounds of Formula (I).

MCT1 = MCT1 (Homo sapiens (Human), UniProt P53985); assay: Assay 4: MCT1-mediated lactate transport in BT20 breast cancer cells; format: cell-based; details: Table 27
Chain of MCT1 (P53985 whole entry): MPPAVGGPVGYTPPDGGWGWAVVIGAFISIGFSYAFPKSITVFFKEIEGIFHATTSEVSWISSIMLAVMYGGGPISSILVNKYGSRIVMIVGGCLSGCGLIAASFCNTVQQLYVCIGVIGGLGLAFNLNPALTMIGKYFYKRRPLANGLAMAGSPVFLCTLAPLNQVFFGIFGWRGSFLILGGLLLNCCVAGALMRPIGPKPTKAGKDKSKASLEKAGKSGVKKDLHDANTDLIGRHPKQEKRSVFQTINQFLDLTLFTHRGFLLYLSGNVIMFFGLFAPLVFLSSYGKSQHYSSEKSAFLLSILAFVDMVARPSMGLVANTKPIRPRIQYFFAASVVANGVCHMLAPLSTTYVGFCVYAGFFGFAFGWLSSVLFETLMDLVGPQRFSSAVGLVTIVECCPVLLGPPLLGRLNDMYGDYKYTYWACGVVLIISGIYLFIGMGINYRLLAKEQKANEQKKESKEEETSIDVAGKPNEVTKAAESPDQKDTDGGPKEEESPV
Chain of MCT1 (P35613 140-385 partner): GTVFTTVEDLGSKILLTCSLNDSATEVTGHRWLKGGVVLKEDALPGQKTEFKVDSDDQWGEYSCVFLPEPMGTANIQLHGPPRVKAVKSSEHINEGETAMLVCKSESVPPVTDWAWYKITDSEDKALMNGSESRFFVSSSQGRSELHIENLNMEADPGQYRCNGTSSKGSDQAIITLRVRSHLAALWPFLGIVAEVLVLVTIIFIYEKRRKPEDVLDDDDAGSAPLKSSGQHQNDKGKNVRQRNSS
Protocol: as §1
Assay 4: MCT1-Mediated Lactate Transport in BT20 Breast Cancer Cells.
Preparation of BCECF loaded cells are as described for Assay 1. Lactate transport assay is as described for Assay 1, except 10 mM L-lactate (rather than 50 mM) is added.

Chain of MCT4 (O15427 whole entry, looked up): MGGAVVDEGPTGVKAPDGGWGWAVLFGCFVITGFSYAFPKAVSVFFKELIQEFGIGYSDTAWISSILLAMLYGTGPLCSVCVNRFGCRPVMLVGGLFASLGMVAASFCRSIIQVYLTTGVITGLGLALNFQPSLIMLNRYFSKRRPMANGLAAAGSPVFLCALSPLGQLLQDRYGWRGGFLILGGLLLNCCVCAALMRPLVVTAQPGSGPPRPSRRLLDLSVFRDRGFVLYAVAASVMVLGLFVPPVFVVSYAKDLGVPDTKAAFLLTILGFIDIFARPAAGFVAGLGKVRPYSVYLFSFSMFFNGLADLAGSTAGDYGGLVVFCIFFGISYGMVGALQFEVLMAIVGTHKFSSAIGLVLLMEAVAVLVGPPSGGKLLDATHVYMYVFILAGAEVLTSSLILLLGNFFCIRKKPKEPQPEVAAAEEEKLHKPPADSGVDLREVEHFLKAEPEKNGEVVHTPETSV
Chain of MCT4 (P35613 whole entry partner, looked up): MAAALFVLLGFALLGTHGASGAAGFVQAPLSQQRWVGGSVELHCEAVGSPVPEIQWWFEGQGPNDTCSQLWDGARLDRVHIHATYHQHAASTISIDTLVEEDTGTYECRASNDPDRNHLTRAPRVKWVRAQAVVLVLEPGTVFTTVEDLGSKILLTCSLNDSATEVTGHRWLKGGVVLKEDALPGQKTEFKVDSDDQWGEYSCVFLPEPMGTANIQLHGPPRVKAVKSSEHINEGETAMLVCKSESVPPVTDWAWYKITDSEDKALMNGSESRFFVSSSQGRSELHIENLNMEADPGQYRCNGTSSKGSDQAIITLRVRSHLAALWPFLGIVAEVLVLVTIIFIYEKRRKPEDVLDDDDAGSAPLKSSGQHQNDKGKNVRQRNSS

Row | Structure (SMILES) | IC50 (MCT4) | IC50 (MCT1)
1 | CC(C)c1ccccc1-n1nc(COC(C)(C)C(=O)O)cc1-c1cccc(OC2CC2)c1 [Example 189, 2-([5-(3-cyclopropoxyphenyl)-1-[2-(propan-2-yl)phenyl]-1H-pyrazol-3-yl]methoxy)-2-methylpropanoic acid] | 18 nM | 22000 nM
2 | CC(C)(OCc1cc(-c2cccc(OC3CC3)c2)n(-c2ccccc2C(F)(F)F)n1)C(=O)O [Example 190, 2-([5-(3-Cyclopropoxyphenyl)-1-[2-(trifluoromethyl)phenyl]-1H-pyrazol-3-yl]-methoxy)-2-methylpropanoic acid] | 7.8 nM | 31000 nM
3 | CCn1ncc2cccc(-n3nc(COC(C)(C)C(=O)O)cc3-c3cccc(OC4CC4)c3)c21 [Example 193, 2-([5-(3-Cyclopropoxyphenyl)-1-(1-ethyl-1H-indazol-7-yl)-1H-pyrazol-3-yl]-methoxy)-2-methylpropanoic acid] | 18 nM | 38000 nM
4 | Cn1cnc2cccc(-n3nc(COC(C)(C)C(=O)O)cc3-c3cccc(OC4CC4)c3)c21 [Example 194, 2-([5-(3-Cyclopropoxyphenyl)-1-(1-methyl-1H-1,3-benzodiazol-7-yl)-1H-pyrazol-3-yl]-methoxy)-2-methylpropanoic acid] | 3500 nM | > 100000 nM
5 | CC(C)(OCc1cc(-c2cc3ccccc3s2)n(Cc2ccccc2Cl)n1)C(=O)O [Example 195] | 5.3 nM | 13000 nM
6 | CCOc1cccc(-c2cc(COC(C)(C)C(=O)O)nn2Cc2ccccc2OCC)c1 [Example 199, 2-([5-(3-Ethoxyphenyl)-1-[(2-ethoxy-phenyl)methyl]-1H-pyrazol-3-yl]methoxy)-2-methylpropanoic acid] | 9.6 nM | 34000 nM
7 | CCOc1cc(OC)cc(-c2cc(COC(C)(C)C(=O)O)nn2Cc2ccccc2OCC)c1 [Example 200, 2-([5-(3-Ethoxy-5-methoxyphenyl)-1-[(2-ethoxyphenyl)methyl]-1H-pyrazol-3-yl]-methoxy)-2-methylpropanoic acid] | 1.9 nM | 17000 nM
8 | CC(C)(OCc1cc(-c2ccc3c(c2)OCCO3)n(Cc2ccccc2Cl)n1)C(=O)O [Example 203, 2-([1-[(2-Chlorophenyl)methyl]-5-(2,3-dihydro-1,4-benzodioxin-6-yl)-1H-pyrazol-3-yl]methoxy)-2-methylpropanoic acid] | 185 nM | 93000 nM
9 | CC(C)(OCc1cc(-c2ccc3c(c2)OCO3)n(Cc2ccccc2Cl)n1)C(=O)O [Example 204, [[5-(2H-1,3-Benzodioxol-5-yl)-1-[(2-chloro-phenyl)methyl]-1H-pyrazol-3-yl]methoxy)-2-methylpropanoic acid] | 40 nM | > 100000 nM
10 | Cn1cc(-c2cc(COC(C)(C)C(=O)O)nn2Cc2ccccc2Cl)cn1 [Example 205, 2-([1-[(2-Chlorophenyl)methyl]-5-(1-methyl-1H-pyrazol-4-yl)-1H-pyrazol-3-yl]-methoxy)-2-methylpropanoic acid] | 890 nM | > 100000 nM
11 | CCOc1ccccc1Cn1nc(COC(C)(C)C(=O)O)cc1-c1ccc2cnn(C)c2c1 [Example 207, 2-([1-[(2-Ethoxyphenyl)methyl]-5-(1-methyl-1H-indazol-6-yl)-lH-pyrazol-3-yl]-methoxy)-2-methylpropanoic acid] | 15 nM | 3200 nM
12 | CCOc1cc(OCC)cc(-c2cc(COC(C)(C)C(=O)O)nn2Cc2ccccc2OCC)c1 [Example 208, 2-([5-(3,5-Diethoxyphenyl)-1-[(2-ethoxy-phenyl)methyl]-1H-pyrazol-3-yl]methoxy)-2-methylpropanoic acid] | 7.5 nM | 17000 nM
13 | Cn1ncc2cc(-c3cc(COC(C)(C)C(=O)O)nn3Cc3ccccc3Cl)ccc21 [Example 209, 2-([1-[(2-Chlorophenyl)methyl]-5-(1-methyl-1H-indazol-5-yl)-1H-pyrazol-3-yl]-methoxy)-2-methyl propanoic acid] | 31 nM | 95000 nM
14 | CCOc1ccccc1Cn1nc(COC(C)(C)C(=O)O)cc1-c1cccc(OC2CCC2)c1 [Example 210, 2-([5-(3-cyclobutoxyphenyl)-1-[(2-ethoxy-phenyl)methyl]-1H-pyrazol-3-yl]methoxy)-2-methylpropanoic acid] | 2.4 nM | 7300 nM
15 | COc1cc(OC)cc(-c2cc(COC(C)(C)C(=O)O)nn2CCc2ccccc2)c1 [Example 212, 2-([5-(3,5-Dimethoxyphenyl)-1-(2-phenyl-ethyl)-1H-pyrazol-3-yl]methoxy)-2-methylpropanoic acid] | 195 nM | > 100000 nM
16 | CCOc1cc(OCC)cc(-c2cc(COC(C)(C)C(=O)O)nn2Cc2ccccc2Cl)c1 [Example 213, 2-([1-[(2-Chlorophenyl)methyl]-5-(3,5-diethoxyphenyl)-1H-pyrazol-3-yl]methoxy)-2-methylpropanoic acid] | 12 nM | 12000 nM
17 | CN(C)c1ccccc1Cn1nc(COC(C)(C)C(=O)O)cc1-c1cccc(OC2CC2)c1 [Example 214, 2-([5-(3-Cyclopropoxyphenyl)-1-[[2-(dimethylamino)phenyl)methyl]-1H-pyrazol-3-yl]methoxy)-2-methylpropanoic acid] | 6 nM | 94000 nM
18 | COc1cccc(-c2cc(COC(C)(C)C(=O)O)nn2-c2ccccc2OC(C)C)c1 [Example 215, 2-([5-(3-Methoxyphenyl)-1-[2-(propan-2-yloxy)phenyl]-l//-pyrazol-3-yl]mcthoxy)-2-methylpropanoic acid] | 360 nM | > 100000 nM
19 | CC[C@@](C)(OCc1cc(-c2cccc(OC3CC3)c2)n(-c2cccc3cnn(C)c23)n1)C(=O)O [Example 217, (2R)-2-([5-(3-cyclopropoxyphenyl)-1-(1-methyl-1H-indazol-7-yl)-1H-pyrazol-3-yl]methoxy)-2-methylbutanoic acid] | 8.7 nM | 18000 nM
20 | CC[C@](C)(OCc1cc(-c2cccc(OC)c2)n(Cc2ccccc2Cl)n1)C(=O)O [Example 218, (2S)-2-([1-[(2-chlorophenyl)methyl]-5-(3-methoxyphenyl)-1H-pyrazol-3-yl]methoxy)-2-methylbutanoic acid] | 7.5 nM | 22000 nM
21 | CC[C@@](C)(OCc1cc(-c2cccc(OC)c2)n(Cc2ccccc2Cl)n1)C(=O)O [Example 219, (2R)-2-([1-[(2-chlorophenyl)methyl]-5-(3-methoxyphenyl)-1H-pyrazol-3-yl]methoxy)-2-methylbutanoic acid] | 4 nM | 14000 nM
22 | CC[C@@](C)(OCc1cc(-c2cccc(OCC(C)(C)C)c2)n(-c2cccc3cnn(C)c23)n1)C(=O)O [Example 223, (2R)-2-([5-[3-(2,2-Dimethyl-propoxy)phenyl]-1-(1-methyl-1H-indazol-7-yl)-1H-pyrazol-3-yl]methoxy)-2-methyl-butanoic acid] | 0.3 nM | 21000 nM
23 | CC(C)Oc1ncc(-c2cc(COC(C)(C)C(=O)O)nn2Cc2ccccc2Cl)o1 [Example 227, 2-([1-[(2-Chlorophenyl)methyl]-5-[2-(propan-2-yloxy)-1,3-oxazol-5-yl]-1H-pyrazol-3-yl)methoxy)-2-methylpropanoic acid] | 690 nM | 37000 nM
24 | Cn1ncc2ccc(-c3cc(COC(C)(C)C(=O)O)nn3-c3ccccc3N3CCCC3)cc21 [Example 230, 2-Methyl-2-([5-(1-methyl-1H-indazol-6-yl)-1-[2-(pyrrolidin-1-yl)phenyl]-1H-pyrazol-3-yl]methoxy]propanoic acid] | 8.1 nM | 92000 nM
25 | COc1cc(OC)cc(-c2cc(COC(C)(C)C(=O)O)nn2-c2ccccc2N2CCCC2)c1 [Example 231, 2-([5-(3,5-Dimethoxyphenyl)-1-[2-(pyrrolidin-1-yl)phenyl]-1H-pyrazol-3-yl]-methoxy)-2-methylpropanoic acid] | 4.5 nM | 63000 nM
26 | CC(C)(OCc1cc(-c2cccc(OC3CC3)c2)n(-c2ccccc2N2CC[C@H](O)C2)n1)C(=O)O [Example 233, 2-([5-(3-Cyclopropoxyphenyl)-1-[2-[(3S)-3-hydroxypyrrolidin-1-yl]phenyl]-1H-pyrazol-3-yl]methoxy)-2-methylpropanoic acid] | 700 nM | > 100000 nM
27 | CC(C)(OCc1cc(-c2cccc(OC3CC3)c2)n(-c2ccccc2N2CCOCC2)n1)C(=O)O [Example 234, 2-([5-(3-Cyclopropoxyphenyl)-1-[2-(morpholin-4-yl)phenyl]-1H-pyrazol-3-yl]-methoxy)-2-methylpropanoic acid] | 960 nM | 70000 nM
28 | CC(C)(OCc1cc(-c2cccc(OC3CC3)c2)n(-c2ccccc2N2CCCC2=O)n1)C(=O)O [Example 235, 2-([5-(3-Cyclopropoxyphenyl)-1-(2-(2-oxopyrrolidin-1-yl)phenyl]-1H-pyrazol-3-yl]methoxy)-2-methylpropanoic acid] | > 30000 nM | > 100000 nM
29 | CC(C)(OCc1cc(-c2cccc(OC3CC3)c2)n(-c2ccccc2-n2cccn2)n1)C(=O)O [Example 236, 2-([5-(3-Cyclopropoxyphenyl)-1-[2-(1H-pyrazol-1-yl)phenyl]-1H-pyrazol-3-yl]-methoxy)-2-methylpropanoic acid] | 170 nM | > 100000 nM
30 | CC(C)(OCc1cc(-c2cccc(OC3CC3)c2)n(-c2ccccc2N2CC[C@@H](O)C2)n1)C(=O)O [Example 237, 2-([5-(3-Cyclopropoxyphenyl)-1-[2-[(3R)-3-hydroxypyrrolidin-1-yl]phenyl]-1H-pyrazol-3-yl]methoxy)-2-methylpropanoic acid] | 160 nM | > 100000 nM
